The test system of assay [1] is Candida albicans ATCC 36082. Briefly: MIC, NCCLS M27A broth dilution. Type of assay: cell-based. The following applies: RPMI 1640, MOPS pH 7. A general note: In broth dilution the organism is exposed to a series of concentrations in liquid medium.
Assay [2] concerns Cryptococcus neoformans I. Briefly: MIC, NCCLS M27A broth dilution. The following applies: RPMI 1640, MOPS pH 7. In kind it is cell-based.
Assay [3] relates to Aspergillus fumigatus Si-I. Briefly: MIC, NCCLS M38P broth dilution. The note with it: RPMI 1640, MOPS pH 7. Type of assay: cell-based.
Assay [4] deals with Candida brusei ATCC 6258 (QC). Briefly: MIC, NCCLS M27A broth dilution. Type of assay: cell-based. The note with it: RPMI 1640, MOPS pH 7.
Assay [5] deals with Candida parapsilosis ATCC 22019 (QC). The assay can be described thus: MIC, NCCLS M27A broth dilution. Type of assay: cell-based. The note with it: RPMI 1640, MOPS pH 7.
The test system of assay [6] is Candida krusel 766.1. Briefly: MIC, NCCLS M27A broth dilution. In kind it is cell-based. The note with it: RPMI 1640, MOPS pH 7.
The subject of assay [7] is Aspergillus fumigatus 1008. The assay can be described thus: MIC, NCCLS M38P broth dilution. The note with it: RPMI 1640, MOPS pH 7. Type of assay: cell-based.
Assay [8] has as its system Candida glabrata 90030. Briefly: MIC, NCCLS M27A broth dilution. Type of assay: cell-based. The note with it: RPMI 1640, MOPS pH 7.
Assay [9] relates to Cryptococcus neoformans M 106. Briefly: MIC, NCCLS M27A broth dilution. In kind it is cell-based. The following applies: RPMI 1640, MOPS pH 7.
Assay [10] relates to Candida tropicalis ATCC 750. Briefly: MIC, NCCLS M27A broth dilution. Type of assay: cell-based. The note with it: RPMI 1640, MOPS pH 7.
The subject of assay [11] is Histoplasma capsulatum. Type of assay: cell-based. The following applies: RPMI 1640, MOPS pH 7.
Assay [12] deals with Candida albicans Y-01-19. The assay can be described thus: MIC, NCCLS M27A broth dilution. In kind it is cell-based. The note with it: RPMI 1640, MOPS pH 7.
The test system of assay [13] is Paecilomyces variotti ATCC 22319 (QC). The assay can be described thus: MIC, NCCLS broth dilution. The following applies: RPMI 1640, MOPS pH 7. In kind it is cell-based.
Assay [14] deals with Candida albicans 1122. The assay can be described thus: MIC, NCCLS M27A broth dilution. The following applies: RPMI 1640, MOPS pH 7. Type of assay: cell-based.
The subject of assay [15] is Candida albicans 1162. The assay can be described thus: MIC, NCCLS M27A broth dilution. The note with it: RPMI 1640, MOPS pH 7. Type of assay: cell-based.
In assay [16] the test system is ergosterol P450DM. The note with it: A. fumigatus lysates; relative to fluconazole; cited from earlier work.
The target of assay [17] is T1, ergosterol P450DM (Candida albicans, UniProt P10613).
T1 construct: host or cells: C. albicans lysates
T1 sequence (P10613 whole entry): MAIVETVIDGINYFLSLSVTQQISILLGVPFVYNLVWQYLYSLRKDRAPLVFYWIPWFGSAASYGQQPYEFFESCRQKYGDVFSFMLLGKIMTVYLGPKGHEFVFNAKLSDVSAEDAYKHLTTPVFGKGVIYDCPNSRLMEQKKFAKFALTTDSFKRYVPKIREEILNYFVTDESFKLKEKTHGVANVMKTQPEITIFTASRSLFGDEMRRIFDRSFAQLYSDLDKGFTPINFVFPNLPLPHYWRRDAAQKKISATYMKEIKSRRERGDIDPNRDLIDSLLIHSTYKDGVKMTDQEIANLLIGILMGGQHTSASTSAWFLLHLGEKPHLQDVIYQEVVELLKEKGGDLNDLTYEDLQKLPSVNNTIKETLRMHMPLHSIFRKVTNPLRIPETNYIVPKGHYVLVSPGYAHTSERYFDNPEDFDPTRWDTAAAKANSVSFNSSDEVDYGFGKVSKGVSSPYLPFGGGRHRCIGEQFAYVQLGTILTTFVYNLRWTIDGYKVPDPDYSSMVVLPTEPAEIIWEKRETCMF
The following applies: C. albicans lysates; relative to fluconazole; cited from earlier work.

Converted amounts (≈) assume the structure as drawn.

For orientation: MIC means the smallest concentration in the dilution series that meets the test's criterion for growth inhibition.

For the compound “2-[(5R,3S)-5-(2,4-Difluorophenyl)-tetrahydro-5-(1H-1,2,4-triazol-1yl-methyl)-furan-3-yl-methyl]-4-[4-(phenyl)-1,2,4-triazol-1-yl]-2,4-dihydro-3(2H,4H)-1,2,4-triazolone [Compound No. 2]”, the MIC in assay [1] is 0.125 µg/mL; in assay [2], 8 µg/mL; in [3], 16 µg/mL; in assay [4] it was 8 µg/mL; in assay [5], 8 µg/mL; in assay [6] it was 16 µg/mL. Besides, the MIC in [7] was determined as 16 µg/mL; in assay [8] it was 16 µg/mL; in assay [9], 8 µg/mL; in assay [10], 0.5 µg/mL; in [11], 16 µg/mL; in assay [12], 16 µg/mL. In [13], the MIC came out at 8 µg/mL.
For the compound “2-[(5R,3S)-5-(2,4-Difluorophenyl)-tetrahydro-5-(1H-1,2,4-triazol-1yl-methyl)-furan-3-yl-methyl]-4-{4-[4-(phenyl)-1-piperazinyl]-chlorophenyl}-2,4-dihydro-3(2H,4H-1,2,4-triazolone [Compound No. 5]”, the MIC is 0.03 µg/mL in assay [1]; less than 0.03 µg/mL in [2]; 1 µg/mL in assay [3]; 0.25 µg/mL in assay [4]; 0.03 µg/mL in [5]; 1 µg/mL in [6]. The MIC in [7] was found to be 2 µg/mL; in [8], 1 µg/mL; in assay [9], 0.125 µg/mL; in assay [10] it was 0.03 µg/mL; in assay [11] it was 0.25 µg/mL; in assay [12] it was 0.125 µg/mL. In addition, the MIC in [13] turned out to be 1 µg/mL.
For the compound `O=c1n(-c2ccc(O)cc2)cnn1C[C@H]1CO[C@@](Cn2cncn2)(c2ccc(F)cc2F)C1` [Compound No. 3], the MIC in assay [1] was 16 µg/mL (≈ 35.2 µM); in [2], 8 µg/mL (≈ 17.6 µM); in [3], more than 16 µg/mL; in [4] it was 16 µg/mL (≈ 35.2 µM); in [5], 16 µg/mL (≈ 35.2 µM); in assay [6], 16 µg/mL (≈ 35.2 µM). For the same compound, the MIC is more than 16 µg/mL in assay [7]; 16 µg/mL (≈ 35.2 µM) in assay [8]; 8 µg/mL (≈ 17.6 µM) in assay [9]; 16 µg/mL (≈ 35.2 µM) in [10]; 16 µg/mL (≈ 35.2 µM) in assay [11]; 8 µg/mL (≈ 17.6 µM) in [12]. In addition, in assay [13], the MIC was more than 16 µg/mL.
Turning to `O=c1n(-c2ccc(Cn3cncn3)cc2)cnn1C[C@@H]1CO[C@@](Cn2cncn2)(c2ccc(F)cc2F)C1` [Compound No. 4], the MIC in assay [1] came to 2 µg/mL (≈ 3.85 µM); in assay [2], 8 µg/mL (≈ 15.4 µM); in [3] it was 16 µg/mL (≈ 30.8 µM); in assay [4] it was 16 µg/mL (≈ 30.8 µM); in [5], 8 µg/mL (≈ 15.4 µM); in assay [6], 16 µg/mL (≈ 30.8 µM). In addition, the minimal inhibitory concentration (MIC) in [7] was 16 µg/mL (≈ 30.8 µM); in [8] it was 16 µg/mL (≈ 30.8 µM); in assay [9], 8 µg/mL (≈ 15.4 µM); in assay [10], 16 µg/mL (≈ 30.8 µM); in [11] it was 16 µg/mL (≈ 30.8 µM); in assay [12] it was 16 µg/mL (≈ 30.8 µM). In addition, the MIC in [13] amounted to 16 µg/mL (≈ 30.8 µM).
Turning to `O=c1n(-c2ccc(OCc3ccccc3)cc2)cnn1C[C@H]1CO[C@@](Cn2cncn2)(c2ccc(F)cc2F)C1` [Compound No. 6, 2-[(5R,3S)-5-(2,4-Difluorophenyl)-tetrahydro-5-(1H-1,2,4-triazol-1yl-methyl)-furan-3-yl-methyl]-4-[4-(benzyloxy)-phenyl]-2,4-dihydro-3(2H,4H)-1,2,4-triazolone], the MIC in [1] was 0.03 µg/mL (≈ 0.0551 µM); in assay [2], 2 µg/mL (≈ 3.67 µM); in assay [3], 16 µg/mL (≈ 29.4 µM); in assay [4], 4 µg/mL (≈ 7.35 µM); in assay [5], 0.25 µg/mL (≈ 0.459 µM); in assay [6], 8 µg/mL (≈ 14.7 µM). For the same compound, the MIC in assay [7] is 16 µg/mL (≈ 29.4 µM); in assay [8], 2 µg/mL (≈ 3.67 µM); in assay [9], 2 µg/mL (≈ 3.67 µM); in assay [10], 0.06 µg/mL (≈ 0.11 µM); in [11], 0.5 µg/mL (≈ 0.918 µM); in [12], 1 µg/mL (≈ 1.84 µM). The compound further came in with a minimal inhibitory concentration (MIC) in assay [13] of 16 µg/mL (≈ 29.4 µM).
As for `O=c1n(-c2ccc(N3CCN(c4ccc(OCc5ccccc5)cc4)CC3)cc2)cnn1C[C@H]1CO[C@@](Cn2cncn2)(c2ccc(F)cc2F)C1` [Compound No. 7, 2-[(5R,3S)-5-(2,4-Difluorophenyl)-tetrahydro-5-(1H-1,2,4-triazol-1yl-methyl)-furan-3-yl-methyl]-4-{4-[4-[4-(benzyloxy)-phenyl]-1-piperazinyl]-phenyl}-2,4-dihydro-3(2H,4H)-1,2,4-triazolone], the MIC is less than 0.03 µg/mL in [1]; 0.06 µg/mL (≈ 0.0851 µM) in assay [2]; 16 µg/mL (≈ 22.7 µM) in assay [3]; 8 µg/mL (≈ 11.4 µM) in assay [4]; 0.125 µg/mL (≈ 0.177 µM) in [5]; 16 µg/mL (≈ 22.7 µM) in [6]. Also, the MIC in [7] turned out to be 16 µg/mL (≈ 22.7 µM); in assay [8], 16 µg/mL (≈ 22.7 µM); in assay [9], 0.125 µg/mL (≈ 0.177 µM); in assay [10] it was 0.125 µg/mL (≈ 0.177 µM); in [11], 16 µg/mL (≈ 22.7 µM); in assay [12], 16 µg/mL (≈ 22.7 µM). In assay [13], the MIC was found to be 1 µg/mL (≈ 1.42 µM).
With `O=c1n(-c2ccc(-n3cnnn3)cc2)cnn1C[C@@H]1CO[C@@](Cn2cncn2)(c2ccc(F)cc2F)C1` [Compound No. 9, 2-[(5R,3R)-5-(2,4-Difluorophenyl)-tetrahydro-5-(1H-1,2,4-triazol-1yl-methyl)-furan-3-yl-methyl]-4-[4-(1,2,3,4-tetrazol-1-yl)-phenyl]-2,4-dihydro-3(2H,4H)-1,2,4-triazolone], the minimum inhibitory concentration (MIC) in assay [2] was 32 µg/mL (≈ 63.2 µM); in [3], “≧128 g/ml”; in [14], 4 µg/mL (≈ 7.9 µM); in assay [4], 64 µg/mL (≈ 126 µM); in assay [5], 16 µg/mL (≈ 31.6 µM); in [6], 64 µg/mL (≈ 126 µM). In addition, the MIC in assay [7] was more than 128 µg/mL; in assay [8], 64 µg/mL (≈ 126 µM); in assay [15] it was 64 µg/mL (≈ 126 µM); in assay [9] it was 8 µg/mL (≈ 15.8 µM); in assay [10], 8 µg/mL (≈ 15.8 µM); in [11], 64 µg/mL (≈ 126 µM). Also, the minimal inhibitory concentration (MIC) turned out to be 64 µg/mL (≈ 126 µM) in assay [12] and 32 µg/mL (≈ 63.2 µM) in assay [13].
Take `C[C@@H](c1ncncc1F)[C@](O)(Cn1cncn1)c1ccc(F)cc1F` [Voriconazole]: the “greater inhibition of ergosterol P450DM compared to fluconazole” value is recorded as 160 fold in assay [16] and 1.6 fold in assay [17].

The values above are taken from US20050261330A1, “Derivatives of 2,2,4-trisubstituted tetrahydrofuran an antifungal agents” (priority 2002, published 2005).
